Entries after “also recorded” stand apart in the source; their conditions may differ. Where a name gives a salt, the structure may show the parent alone.
Legend:
[1] = tested on: type A GABA channel receptors (GABAa-R); assay: Whole-cell patch-clamp, effect on GABA-induced ionic current; type: cell-based, human; conditions: 0.25 μM compound, GABA 10 μM in the recording pipette; for Effect on the type A GABA receptor channel or GABAa-R: whole cell patch-clamp
Procedure: The studies were conducted using an electrophysiological approach. The activity of the cells was recorded using the patch-clamp technique in its so-called whole cell configuration. The mediums used for the recordings have the following composition (in mM): NaCl ([…]), KCl (2), CaCl2 (1), MgCl2 (2), HEPES (10) for the medium bathing the cells and NaCl (132), KCl (2), CaCl2 (1), MgCl2 (2), TEA (15), HEPES (10) for the recording pipette, the pH was adjusted in both cases to 7.4 with NaOH. The GABA 10 μM was added into the recording pipette.
After producing a “gigaseal” (Planar patch clamp) between the cellular membrane and the tip of a pipette with an electrical resistance comprised between 4 and 7 MO, the ionic currents were measured using a patch-clamp amplifier (Axopatch B200, Axon Instruments, CA). The acquisition of the signal (acquisition frequency of 10 kHz) was done using an interface card (Digidata 1322A, Axon Instruments, CA) and the pClamp 8 software (Axons Instruments, CA).
The allopregnanolone and the BR053, BR338, BR297 and BR351 derivatives were solubilized in pure ethanol before being diluted in the medium to the desired concentration. The dilution factor was at least equal to 2×10^4, which makes the final concentration of ethanol in the recording solution remain below […] (a concentration not affecting the activity of the GABAa receptor).
Depending on the experiments, the allopregnanolone or the BR053, BR338, BR297 or BR351 derivatives, at the concentration of 0.25 μM, were either added in the recording pipette at the same time as the GABA, or applied to the cell by perfusion.
The application was done by gravity through a multi-path perfusion system made up of glass tubes each having an inner diameter of 1 mm. The selected path was placed across from the recorded cell at approximately 100 μm. The solution was changed by calibrated rotation of the tubes using a stepping motor thus placing the new selected path across from the cell. Synchronously with that rotation, the solenoid valve controlling the flow of the selected path was also opened and the preceding one closed.

Sprague-Dawley rats [2] = assay: Von Frey filament test, painful neuropathy caused by vincristine; type: in vivo, rat
Source text: (§1) Adult male Sprague-Dawley rats weighing between 250 and 300 g were used. They came from the company Janvier (le Genest St. Isle, France). The care and handling of the animals were done in accordance with the guidelines from the Council of the European Community (86/609/EC) and in accordance with the ethical rules of the International Association for the Study of Pain. The protocol used to carry out the in vivo studies was subject to examination and authorization granted to Prof. Mensah-Nyagan's team by the Alsatian Department of the Veterinary Public Health Guide for the Care and Use of Laboratory Animals (Approval number 67-186). The rats were housed under standard conditions with a photoperiod of 12 h day/12 h night, with unlimited food and water. The animals spent one acclimatization week before being integrated into the experimental protocols. Each animal was examined daily to detect any signs of deterioration of its health condition, such as dramatic weight loss, a decrease in appetite during chemotherapy and pharmacological treatment.
(§2) Vincristine sulfate (VINC), purchased from Sigma-Aldrich (St. Louis, Mo., USA), was dissolved in a physiological saline solution (NaCl 0.9%) at 0.1 mg/ml and stored at 4° C. The saline solution (NaCl 0.9%) is used as excipient. The VINC is injected daily by intraperitoneal injection (i.p.), in 2 cycles of 5 days separated by 2 days off, at a concentration of 0.1 mg/kg/day. The control animals were injected by i.p. (1 ml/kg) with the excipient using a similar protocol.
(§3) The allopregnanolone in the derivatives according to the invention (BR053 and BR297) were diluted in a hydroxypropylcellulose (HPC) solution (0.3%) used as excipient. The curative treatment with allopregnanolone, BR053 or BR297 began 3 days after the vincristine cycles. Each of these compounds (allopregnanolone, BR053 or BR297) was administered by the intraperitoneal route at a dose of 4 mg/kg at a rate of one injection every 2 days. Thus, over the total duration of the in vivo experiments (14 days), each animal received 7 injections of excipient, allopregnanolone, BR053 or BR297, based on its group, at a dose of 4 mg/kg. The animals were sacrificed 24 hours after the last behavioral test (28th day) to remove tissues that will be used for later histology and electrophysiology studies.
(§4) The mechanical nociceptive sensitivity threshold was evaluated in rats placed in individual Plexiglas boxes (30×30×25 cm) mounted on a raised mesh support thereby allowing access to the surface or arch of the back feet. The presence of allodynia (exaggerated response following a normally […] stimulation) was measured using a series of calibrated von Frey filaments (1, 2, 4, 6, 8, 10, 15, 26, 100, 180 and 300 g; Stoelting, Wood Dale, Ill., USA), which were applied on the sole of the back foot of the animal with increasing force until the filament twisted. The filament was applied for a period of 1 to 2 seconds and the procedure was repeated 5 times at 4-5 second intervals. The withdrawal threshold of the foot was calculated by taking the average of […] repeated stimuli (in grams) that caused a reflex to withdraw the foot. Only vigorous and fast withdrawals of the foot were considered positive. In the experiments, the naïve animals never responded to the 4 g filament and responded 25-30% of the time to the 15 g filament.

Sprague-Dawley rats [3] = assay: Acetone test of thermal allodynia to cold, painful neuropathy caused by vincristine; type: in vivo, rat
Source text: as §1, §2, §3
The thermal nociceptive sensitivity threshold to cold was measured in rats placed in individual Plexiglas boxes (30×30×25 cm) mounted on a raised mesh support so as to allow access to the sole of the animal's foot. […] Six measurements (3 per foot) were performed with a latency of 5 minutes between each stimulation. The average latency for withdrawal of the feet (in seconds) was calculated by averaging 6 measurements at each studied point in time. […]

Sprague-Dawley rats [4] = assay: Von Frey mechanical nociceptive sensitivity threshold in healthy animals not treated with vincristine; type: in vivo, rat; conditions: 4 mg/kg every 2 days for 2 weeks
Source text: as §1, §3
as §4, with “In the experiments, the naïve animals never responded to the 4 g filament and responded 25-30% of the time to the 15 g filament.” left out

[5] = tested on: SH-SY5Y human neuroblastomas; assay: MTT assay of cell viability and density: effect on cell proliferation; type: cell-based; parameters: key to Effect on cell proliferation (neural proliferative effect): −: no effect; +: low effect; ++: high effect; +++: very high effect; conditions: SH-SY5Y cultures
Procedure: (§5) The cellular model used to carry out the in vitro experiments is a line of human neuroblastomas called line SH-SY5Y.
(§6) The human neuroblastoma is a cultivated at 37° C. in a humidity saturated atmosphere, under 5% CO2 in a culture medium formed by DMEM with an added 10% (v/v) fetal calf serum, 5% (v/v) horse serum, 2 mM glutamax and 1% (v/v) of the penicillin/streptomycin mixture.
The cellular viability and the density (or number of SH-SY5Y cells/cm^2) were determined using the MTT reduction assay. The MTT technique is a colorimetric test that measures the reduction of the tetrazolium salt (3-[4,5-dimethylthiazol-2-yl]-2,5-diphenyl tetrazolium bromide) in formazan by the succinate dehydrogenase present in the mitochondria of the living cells. The formazan forms blue crystals. Thus, after solubilization of the crystals, the measurement of the absorbance at 595 nm makes it possible to obtain absorbency values directly proportional to the number of viable cells and the cell density in the culture boxes.
The effects of derivatives BR053, BR338, BR297 and BR351 on cell proliferation were evaluated by comparing the number of viable cells and the cell density in the control culture boxes, treated only with the culture medium described in paragraph A1 above, and the culture boxes exposed to the culture medium with the added BR053, BR338, BR297 or BR351 derivatives.

[6] = tested on: SH-SY5Y human neuroblastomas; assay: Neuroprotection against cell death caused by oxidizing stress (H2O2), MTT readout; type: cell-based; parameters: key to Neuroprotective effect against cell death caused by oxidizing stress: −: no effect; +: low effect; ++: high effect; +++: very high effect; conditions: H2O2 1 mM; for Neuroprotective effect against cell death caused by oxidizing stress: SH-SY5Y cultures, 24 or 48 hours, MTT; for Protection of human neuroblastomas from cell death caused by H2O2 (in words): SH-SY5Y
Procedure: as §5, §6
The human neuroblastomas were incubated with the culture medium alone or containing the chief inducing agent of oxidizing stress, hydrogen peroxide (H2O2), at various concentrations in order to determine the concentrations of H2O2 and the incubation times causing the death of a significant percentage of the cells. The neuroprotective properties of the BR053, BR338, BR297 and BR351 derivatives were determined by pretreating the SH-SY5Y cells with the culture medium alone or respectively containing the BR053, BR338, BR297 or BR351 derivative. After pretreatment, each of these categories of cells was integrated for 24 hours or 48 hours with the following solutions: (i) culture medium; (ii) culture medium containing only the BR053, BR338, BR297 or BR351 derivative; (iii) culture medium containing only H2O2 at a concentration of 1 mM, which causes a high percentage of cell death; (iv) culture medium containing both H2O2 (1 mM) and one of the BR053, BR338, BR297 or BR351 derivatives.
10 μl of a stock solution of tetrazolium, abbreviated MTT, at 3.6 mM was added in each well and the incubation continued in darkness for 5 h at 37° C. After cell lysis, spectrophotometer measurements at 595 nm were carried out to determine the survival and cell density under each of the conditions described above.

[7] = rats with vincristine neuropathy, 4 mg/kg i.p. every 2 days for 2 weeks

Compound | Effect on the type A GABA receptor channel or GABAa-R [1] | Effect on the type A GABA receptor channel or GABAa-R ([1]; listed as allopregnanolone) | Effect on mechanical allodynia and mechanical hyperalgesia (Sprague-Dawley rats [2]; [7]) | Effect on thermal allodynia to cold (Sprague-Dawley rats [3]; [7]) | Anti-nociceptive effect in healthy animals (Sprague-Dawley rats [4]) | Mechanical nociceptive sensitivity threshold after treatment (Sprague-Dawley rats [4]; 80 g before) [g] | Effect on cell proliferation (neural proliferative effect) [5] | Effect on the proliferation of human neuroblastomas (in words) [5] | Neuroprotective effect against cell death caused by oxidizing stress [6] | Protection of human neuroblastomas from cell death caused by H2O2 (in words) [6] | Time until desensitization of the GABAa-R channel [1] [min] | Von Frey filament that causes more than 70% of responses (Sprague-Dawley rats [2]; rats after vincristine 0.1 mg/kg/day i.p., 2 cycles of 5 days, 80 g before treatment) [g] | Responses to the 15 g filament (mechanical hyperalgesia) (Sprague-Dawley rats [2]; rats after vincristine chemotherapy, 30% before) [%] | Responses to the 4 g filament (mechanical allodynia) (Sprague-Dawley rats [2]; rats after vincristine chemotherapy, no response before treatment) | Latency for withdrawal of the foot, acetone test (Sprague-Dawley rats [3]; rats after vincristine chemotherapy, 20 seconds before) [s]
CC(=O)[C@H]1CCC2C3CC[C@H]4C[C@H](O)CC[C@]4(C)C3CC[C@@]21C (stereo partly drawn) [Allopregnanolone, reference compound] | Positive allosteric effect | positive allosteric effect | eliminates the symptoms | eliminates the symptoms | significant anti-nociceptive effect | 200 | – | – | – | – | – | – | – | – | –
CC(=O)[C@H]1CCC2C3CC[C@H]4C[C@H](O)CC[C@]4(C)C3CC(=O)[C@@]21C (stereo partly drawn) [BR338] | Positive allosteric effect | – | – | – | – | – | ++ | high effectiveness | + | capable of protecting human neuroblastomas from the cell death | – | – | – | – | –
C=CCO[C@@H]1CC[C@]2(C)C3CC[C@@]4(C)C(CC[C@@H]4C(C)=O)C3CC[C@H]2C1 (stereo partly drawn) [BR351] | only temporarily reproduces the positive allosteric effect; also recorded: Temporary positive allosteric | – | – | – | – | – | +++ | very high effectiveness | +++ | capable of protecting human neuroblastomas from the cell death | 1 | – | – | – | –
CC[C@]1(O)C[C@H]2CN(CCc3c([nH]c4ccccc34)[C@@](C(=O)OC)(c3cc4c(cc3OC)N(C=O)[C@H]3[C@@](O)(C(=O)OC)[C@H](OC(C)=O)[C@]5(CC)C=CCN6CC[C@]43[C@@H]65)C2)C1 [vincristine, Vincristine sulfate] | – | – | – | – | – | – | – | – | – | – | – | 20 | ~70 | more than 30% | 11
